This is an account of results in patent publication US9765056B2, “Indole and pyrrole compounds, a process for their preparation and pharmaceutical compositions containing them” (LES LABORATOIRES SERVIER, priority 2013, dated 2017).

Each structure is given as a SMILES string. Counter-ions that a name gives are not always drawn.

The IC50 is the concentration that inhibits the measured activity by half.

One assay has as its target Bcl-2 protein (histag-Bcl-2, UniProtKB P10415) (Homo sapiens (Human), UniProt P10415). In words: Inhibition of Bcl-2 by the fluorescence polarisation technique. The class given is binding. Particulars: fluorescence polarisation test; method A, or method B where underlined (underlining not visible); read-out: IC50 (nM) Bcl-2 FP. The source says: Inhibition of Bcl-2 by the fluorescence polarisation technique

The subject of assay [1] is RS4;11 leukaemia tumour line. Put plainly: In vitro cytotoxicity, Microculture Tetrazolium Assay (MTT). Particulars: Homo sapiens; RS4;11 cells, 48 hours exposure. Format: cell-based. As for the experimental part: The cytotoxicity studies were carried out on the RS4;11 leukaemia tumour line.
The cells are distributed onto microplates and exposed to the test compounds for 48 hours. The cell viability is then quantified by a colorimetric assay, the Microculture Tetrazolium Assay (Cancer Res., 1987, 47, 939-942).

Sequence of Bcl-2 protein (P10415 whole entry): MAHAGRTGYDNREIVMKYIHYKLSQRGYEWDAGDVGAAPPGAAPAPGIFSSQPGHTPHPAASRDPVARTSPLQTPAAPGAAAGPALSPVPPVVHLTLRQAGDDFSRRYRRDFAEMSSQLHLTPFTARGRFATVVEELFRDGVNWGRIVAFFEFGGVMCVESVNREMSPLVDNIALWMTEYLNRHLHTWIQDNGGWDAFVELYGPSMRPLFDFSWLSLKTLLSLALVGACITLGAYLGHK

For `COc1cc(-n2nc(C(=O)N(c3ccccc3)c3ccccc3)c3ccccc32)c(C(=O)N2Cc3ccccc3C[C@H]2CN)cc1N` [Example 152, 1-{4-Amino-2-[(3S)-3-(aminomethyl)-1,2,3,4-tetrahydroisoquinoline-2-carbonyl]-5-methoxyphenyl}-N,N-diphenyl-1H-indazole-3-carboxamide], the half-inhibitory concentration (IC50) at Bcl-2 protein was 218 nM; in assay [1], 2160 nM.
The matching figures for `NC[C@@H]1Cc2ccccc2CN1C(=O)c1cc2c(cc1-n1cc(C(=O)N(c3ccccc3)c3ccc(O)cc3)c3ccccc31)OCO2` [Example 153, 1-{6-[(3S)-3-(Aminomethyl)-1,2,3,4-tetrahydroisoquinoline-2-carbonyl]-2H-1,3-benzodioxol-5-yl}-N-(4-hydroxyphenyl)-N-phenyl-1H-indole-3-carboxamide]: 286 nM and 237 nM.
With `CN1CCN(C[C@@H]2Cc3ccccc3CN2C(=O)c2ccccc2-n2cc(C(=O)N(c3ccccc3)c3ccc(O)cc3)c3ccccc32)CC1` [Example 155, N-(4-Hydroxyphenyl)-1-{2-[(3S)-3-[(4-methylpiperazin-1-yl)methyl]-1,2,3,4-tetrahydroisoquinoline-2-carbonyl}phenyl]-N-phenyl-1H-indole-3-carboxamide], the IC50 at Bcl-2 protein was determined as 13.2 nM; in assay [1], 246 nM.
As to `NC[C@@H]1Cc2ccccc2CN1C(=O)c1ccc(Cl)cc1-n1cc(C(=O)N(c2ccccc2)c2ccc(O)cc2)c2ccccc21` [Example 156, 1-{2-[(3S)-3-(Aminomethyl)-1,2,3,4-tetrahydroisoquinoline-2-carbonyl]-5-chlorophenyl}-N-(4-hydroxyphenyl)-N-phenyl-1H-indole-3-carboxamide], the figures for the IC50 (at Bcl-2 protein; in assay [1]) were 11.7 nM and 450 nM, respectively.
In the same order, the values of `NC[C@@H]1Cc2ccccc2CN1C(=O)c1cc(NC(=O)CSc2ccccc2)ccc1-n1cc(C(=O)N(c2ccccc2)c2ccc(O)cc2)c2ccccc21` [Example 157, 1-{2-[(3S)-3-(Aminomethyl)-1,2,3,4-tetrahydroisoquinoline-2-carbonyl]-4-[2-(phenylsulphanyl)acetamido]phenyl}-N-(4-hydroxyphenyl)-N-phenyl-1H-indole-3-carboxamide] are 16.1 nM and 487 nM.
The matching figures for `CC(C)CC1Oc2cc(C(=O)N3Cc4ccccc4C[C@H]3CN)c(-n3cc(C(=O)N(c4ccccc4)c4ccc(O)cc4)c4ccccc43)cc2O1` (stereo partly drawn) [Example 158, 1-{6-[(3S)-3-(Aminomethyl)-1,2,3,4-tetrahydroisoquinoline-2-carbonyl]-2-(2-methylpropyl)-2H-1,3-benzodioxol-5-yl}-N-(4-hydroxyphenyl)-N-phenyl-1H-indole-3-carboxamide]: 54.1 nM and 834 nM.
The matching figures for `CN1CCN(C[C@@H]2Cc3ccccc3CN2C(=O)c2ccc(Cl)cc2-n2cc(C(=O)N(c3ccccc3)c3ccc(O)cc3)c3ccccc32)CC1` [Example 159, 1-{5-Chloro-2-[(3S)-3-[(4-methylpiperazin-1-yl)methyl]-1,2,3,4-tetrahydroisoquinoline-2-carbonyl]phenyl}-N-(4-hydroxyphenyl)-N-phenyl-1H-indole-3-carboxamide]: 10.2 nM and 191 nM.
Take `CN1CCN(C[C@@H]2Cc3ccccc3CN2C(=O)c2cc(NC(=O)CSc3ccccc3)ccc2-n2cc(C(=O)N(c3ccccc3)c3ccc(O)cc3)c3ccccc32)CC1` [Example 163, N-(4-Hydroxyphenyl)-1-{2-[(3S)-3-[(4-methylpiperazin-1-yl)methyl]-1,2,3,4-tetrahydroisoquinoline-2-carbonyl]-4-[2-(phenylsulphanyl)acetamido]phenyl}-N-phenyl-1H-indole-3-carboxamide]: the figures for the IC50 (at Bcl-2 protein; in assay [1]) were 22.8 nM and 292 nM, respectively.
The matching figures for `CN1CCN(C[C@@H]2Cc3ccccc3CN2C(=O)c2cc3c(cc2-n2cc(C(=O)N(c4ccccc4)c4ccc(O)cc4)c4ccccc42)OCO3)CC1` [Example 164, N-(4-Hydroxyphenyl)-1-{6-[(3S)-3-[(4-methylpiperazin-1-yl)methyl]-1,2,3,4-tetrahydroisoquinoline-2-carbonyl]-2H-1,3-benzodioxol-5-yl}-N-phenyl-1H-indole-3-carboxamide dihydrochloride]: 7.8 nM and 132 nM.
The matching figures for `COc1cc(-n2cc(C(=O)N(c3ccccc3)c3ccc(O)cc3)c3ccccc32)c(C(=O)N2Cc3ccccc3C[C@H]2CN2CCN(C)CC2)cc1O` [Example 165, 1-{4-Hydroxy-5-methoxy-2-[(3S)-3-[(4-methylpiperazin-1-yl)methyl]-1,2,3,4-tetrahydroisoquinoline-2-carbonyl}phenyl]-N-(4-hydroxyphenyl)-N-phenyl-1H-indole-3-carboxamide dihydrochloride]: 3.2 nM and 179 nM.
In the same order, the values of `COc1cc(C(=O)N2Cc3ccccc3C[C@H]2CN2CCN(C)CC2)c(-n2cc(C(=O)N(c3ccccc3)c3ccc(O)cc3)c3ccccc32)cc1Cl` [Example 167, 1-{5-Chloro-4-methoxy-2-[(3S)-3-[(4-methylpiperazin-1-yl)methyl]-1,2,3,4-tetrahydroisoquinoline-2-carbonyl]phenyl}-N-(4-hydroxyphenyl)-N-phenyl-1H-indole-3-carboxamide] are 37.4 nM and 984 nM.
In the case of `COc1ccc(C(=O)N2Cc3ccccc3C[C@H]2CN2CCN(C)CC2)c(-n2cc(C(=O)N(c3ccccc3)c3ccc(O)cc3)c3ccccc32)c1` [Example 168, N-(4-Hydroxyphenyl)-1-{5-methoxy-2-[(3S)-3-[(4-methylpiperazin-1-yl)methyl]-1,2,3,4-tetrahydroisoquinoline-2-carbonyl]phenyl}-N-phenyl-1H-indole-3-carboxamide dihydrochloride], the IC50 came out at 11.4 nM on Bcl-2 protein and 188 nM in assay [1].
The matching figures for `COc1ccc(C(=O)N2Cc3ccccc3C[C@H]2CN2CCCCC2)c(-n2cc(C(=O)N(c3ccccc3)c3ccc(O)cc3)c3ccccc32)c1` [Example 169, N-(4-Hydroxyphenyl)-1-{5-methoxy-2-[(3S)-3-(piperidin-1-ylmethyl)-1,2,3,4-tetrahydroisoquinoline-2-carbonyl]phenyl}-N-phenyl-1H-indole-3-carboxamide hydrochloride]: 108 nM and 854 nM.
Regarding `CN1CCN(C[C@@H]2Cc3ccccc3CN2C(=O)c2cc3c(cc2-n2cc(C(=O)N(c4ccccc4)c4ccc(O)cc4)c4ccccc42)OCCO3)CC1` [Example 170, N-(4-Hydroxyphenyl)-1-{7-[(3S)-3-[(4-methylpiperazin-1-yl)methyl]-1,2,3,4-tetrahydroisoquinoline-2-carbonyl]-2,3-dihydro-1,4-benzodioxin-6-yl}-N-phenyl-1H-indole-3-carboxamide], the values for the IC50 (at Bcl-2 protein; in assay [1]) were 16.8 nM and 177 nM, respectively.
The matching figures for `O=C(c1cn(-c2cc(Cl)ccc2C(=O)N2Cc3ccccc3C[C@H]2CN2CCCCC2)c2ccccc12)N(c1ccccc1)c1ccc(O)cc1` [Example 171, 1-{5-Chloro-2-[(3S)-3-(piperidin-1-ylmethyl)-1,2,3,4-tetrahydroisoquinoline-2-carbonyl}phenyl]-N-(4-hydroxyphenyl)-N-phenyl-1H-indole-3-carboxamide]: 71.8 nM and 1050 nM.
